For orientation: NOAEL means the highest tested level that showed no adverse finding. A word on the LOAEL: it is the lowest tested level that showed an adverse finding.

The values below come from EPA's ToxValDB 9.5.

One series deals with Oryctolagus sp. Particulars: for LD50: acute; for LOAEL: Dutch-belted.
Series [1] relates to Rattus norvegicus. As to conditions: for LC50 / LD50: acute.
For the next series, the system named is Mus musculus. As to conditions: for LC50: inhalation; for LOAEL / NOAEL: diet, B6C3F1.
The subject of series [2] is Rattus norvegicus. As to conditions: oral.
[3] abbreviates: subchronic, duration: 13 weeks, oral, diet, Fischer 344.
Setting [4] is: short-term, duration: 13 days, oral.
Where [5] appears, read: subchronic, duration: 13 weeks, oral.
Where [6] appears, read: short-term, duration: 28 days, gavage, M, Sprague-Dawley, Deaths + Clinical Observation: Locomotor activity decrease, SalivationDiarrhea or loose stool Staining around nose and mouth + Functional ….
The mark [7] stands for this setting: short-term, duration: 14 days, oral, gavage, F, Fischer 344.
Where [8] appears, read: short-term, duration: 14 days, oral, gavage, M, Fischer 344.
The mark [9] stands for this setting: subchronic, duration: 13 weeks, inhalation, F, Fischer 344.
Setting [10] is: subchronic, duration: 13 weeks, inhalation, Fischer 344.
[11] abbreviates: subchronic, duration: 13 weeks, oral, gavage, F, Fischer 344.
Where [12] appears, read: subchronic, duration: 13 weeks, oral, gavage, Fischer 344.

Several values for one entry are separate records, joined by “and”; a condition that tells them apart may be missing. Identical values can stand only once.

`CC(C)(C)C(=O)O` [2,2-Dimethylpropanoic acid]: the LD50 is 3160 mg/kg in the series on Oryctolagus sp. (dermal) and 3160 mg/kg in the series on Oryctolagus sp. (dermal, semiocclusive). Besides, the no-observed-adverse-effect level (NOAEL) with Oryctolagus sp. (repeat dose other, dermal, M) amounted to 300 mg/kg-day; in the series on Oryctolagus sp. (repeat dose other, dermal, semiocclusive), 300 mg/kg-day; with Rattus norvegicus [1] (short-term, duration: 28 days, oral, gavage, Fischer 344), 300 mg/kg-day; with Rattus norvegicus [2] (short-term, duration: 28 days, gavage, M/F, Fischer 344, Clinical Observation: Head shaking Sneezing Dark nasal discharge + Blood Chemistry: ALP increase, T-Cho increase, T-Bil increase + Absolute …), 300 mg/kg-day. For the same compound, the LC50 is below 4 µg/mL in the series with Rattus norvegicus [1] (inhalation, Wistar) and below 4 µg/mL in the series on Mus musculus (acute, Swiss).
`CC(C)(N)CO` [2-Amino-2-methylpropan-1-ol]: the LD50 is above 2000 mg/kg in the series with Oryctolagus sp. (dermal, occlusive) and 3350 mg/kg with Mus musculus (acute, oral, gavage). This compound also had an LOAEL in the series with Rattus norvegicus [1] (subchronic, duration: 3 months, oral, diet, Sprague-Dawley) of 240 mg/kg-day.
As to `Cc1cc(O)c(C(C)(C)C)cc1Sc1cc(C(C)(C)C)c(O)cc1C` [4,4'-Thiobis(6-tert-butyl-m-cresol)], the LD50 in the series with Oryctolagus sp. (dermal, New Zealand) was above 5010 mg/kg; with Oryctolagus sp. (dermal, occlusive, New Zealand) it was above 5010 mg/kg; with Rattus norvegicus [1] (oral, diet, Sprague-Dawley), 4150 mg/kg; with Rattus norvegicus [1] (oral, gavage, Sprague-Dawley), 4150 mg/kg. For the same compound, the no-observed-adverse-effect level (NOAEL) in the series with Oryctolagus sp. (reproduction developmental, duration: 13 days, oral, gavage, F, New Zealand) amounted to 0.2 mg/kg-day; in the series with Rattus norvegicus [1] (short-term, duration: 15 days, oral, diet, Fischer 344), 2500 ppm; in the series on Rattus norvegicus [1] (setting [3]), 48 mg/kg-day; in the series with Mus musculus (setting [4]) it was 250 ppm; in the series on Mus musculus (setting [5]), 49.2 mg/kg-day; in the series with Rattus norvegicus [2] (setting [6]), 60 mg/kg-day. The lowest observed adverse effect level (LOAEL) in the series with Rattus norvegicus [1] (short-term, duration: 13 days, oral, diet, Fischer 344) was determined as 250 ppm; in the series with Rattus norvegicus [1] (setting [3]), 96 mg/kg-day; in the series on Mus musculus (setting [4]), 500 ppm; with Mus musculus (setting [5]), 98.5 mg/kg-day. Also, the NOEL in the series with Rattus norvegicus [2] (setting [6]) is below 60 mg/kg-day; in the series on Rattus norvegicus [2] (subchronic, duration: 13 weeks, diet, F, Fischer 344, Clinical Observation: Diarrhea + Body Weight Changes: decrease + Food Consumption: decrease + Hematology: Nucleated erythrocyte increase, …), below 15 mg/kg-day; in the series on Rattus norvegicus [2] (subchronic, duration: 13 weeks, diet, M/F, Fischer 344, Clinical Observation: Diarrhea + Body Weight Changes: decrease + Food Consumption: decrease + Hematology: Nucleated erythrocyte increase, …), below 24 mg/kg-day.
Consider `CCc1ccc(C)cc1` [4-Ethyltoluene], for which the LD50 with Oryctolagus sp. (dermal, occlusive, New Zealand) is above 5000 mg/kg; in the series with Rattus norvegicus [1] (oral, gavage, Sprague-Dawley) it was 4850 mg/kg. For the same compound, the lowest-observed-adverse-effect level (LOAEL) in the series on Oryctolagus sp. (developmental, oral, gavage) is above 200 mg/kg-day; in the series on Oryctolagus sp. (reproduction developmental, oral, gavage, F), 250 mg/kg-day; in the series with Rattus norvegicus [1] (setting [7]) it was 400 mg/kg-day; with Rattus norvegicus [1] (setting [8]), 400 mg/kg-day; in the series with Rattus norvegicus [1] (setting [9]), 4810 mg/m3; in the series on Rattus norvegicus [1] (setting [10]), 4810 mg/m3. Also, the lowest-observed-adverse-effect level (LOAEL) in the series with Rattus norvegicus [1] (setting [11]) and in the series with Rattus norvegicus [1] (setting [12]) was 300 mg/kg-day each time. In the series with Rattus norvegicus [1] (inhalation, Sprague-Dawley), this compound gave an LC50 above 19200 mg/m3. Besides, the NOAEL in the series on Rattus norvegicus [1] (developmental, duration: 20 days, oral, gavage) was above 200 mg/kg-day; in the series on Rattus norvegicus [1] (setting [7]), 200 mg/kg-day; in the series with Rattus norvegicus [1] (setting [8]), 200 mg/kg-day; with Rattus norvegicus [1] (setting [9]), 1500 mg/m3; in the series on Rattus norvegicus [1] (setting [10]), 1500 mg/m3; in the series on Rattus norvegicus [1] (setting [11]) it was 100 mg/kg-day. In addition, the NOAEL in the series on Rattus norvegicus [1] (setting [12]) worked out at 100 mg/kg-day.
Turning to `CCCCCN(CCCCC)C(=S)[S][Sb]([S]C(=S)N(CCCCC)CCCCC)[S]C(=S)N(CCCCC)CCCCC` [Antimony diamyldithiocarbamate], the LD50 with Oryctolagus sp. (dermal, occlusive) was found to be 16000 mg/kg; with Rattus norvegicus [1] (oral, gavage), 16400 mg/kg.
As for `O=C(Cl)CCl` [Chloroacetyl chloride], the LD50 with Oryctolagus sp. (dermal, semiocclusive, New Zealand) was ≥ 316 mg/kg and ≤ 501 mg/kg; in the series with Rattus norvegicus [1] (oral), ≥ 1260 mg/kg and ≤ 2500 mg/kg; in the series with Rattus norvegicus [1] (oral, Sprague-Dawley), 207 mg/kg. In addition, the LC50 was 3050 mg/m3 with Rattus norvegicus [1] (inhalation, Fischer 344) and 11100 mg/m3 in the series on Mus musculus (acute). This compound also gave an LOAEL in the series on Rattus norvegicus [1] (short-term, duration: 4 weeks, inhalation, Fischer 344) of 2.31 mg/m3.
